# Experiments:
# [1] = system: HO-1-LacZ (HOZ) transgene; assay: LacZ transgene expression in HO-1-LacZ (HOZ) reporter mice; format: in vivo, mouse
# Method: Each test compound was dissolved in the appropriate vehicle solution and administered by intraperitoneal injection (i.p.) at a dose volume of 10 ml/kg. Wherever possible, both naive (untreated) and vehicle-treated controls were used. If a test item whose toxicity in the mouse is poorly characterised was to be used, a dose-ranging experiment was conducted prior to the main experiment. The test item was administered to a single mouse which was monitored for any adverse effects 6-8 hours and 24 hours later. If the single dose ranging mouse tolerated the treatment, the remaining mice were administered the test item according to the protocol.
# Two slices of tissue (˜2 mm thickness) were removed for histochemical analysis of LacZ expression according to methods described below.
# Tissues were washed with PBS and prefixed in 0.2% glutaraldehyde in PBS containing 0.1M MgCl2 and 5 mM EDTA, pH 7.3, for 4 hours at 4° C. on a shaker. After fixation, the tissues were transferred to 20% Sucrose solution and dehydrated overnight at 4° C. The next day they were embedded in cryo-M-bed medium on cork discs and lowered slowly into liquid nitrogen then transferred to −80° C. until sections were required.
# Cryostat sample and chamber temperatures were set to −30° C. The sample to be sectioned was placed in the cryostat one hour prior to sectioning to allow equilibration at the appropriate temperature. Frozen sections (10 μm) were cut and placed on aminopropyltriethoxysilane (APES) coated slides.
# Prior to staining, sections were incubated in 0.2% glutaraldehyde (as above) for 10 minutes at room temperature then washed twice (5 min each) in PBS containing 2 mM MgCl2, 0.01% sodium deoxycholate and 0.02% % Nonidet-P40. Sections were then […] the same wash solution containing 1 mg/ml X-gal, 5 mM potassium ferrocyanide and 5 mM potassium ferricyanide overnight at 37° C. then washed twice in PBS for 5 min, allowed to air dry and mounted in aqueous mounting medium (Hydromount). Slides were evaluated and photographed. • Frozen Method 2
# Tissues were excised, immediately placed into chilled 4% paraformaldehyde containing 0.1% glutaraldehyde and 2 mM MgCl2 in PBS, and fixed in the above solution for 3 hours at 2-8° C. with gentle shaking. Fixed tissues were washed at 2-8° C. for 3×5 minutes with chilled PBS containing 2 mM MgCl2 and dehydrated overnight at 2-8° C. in PBS containing 2 mM MgCl2 and 30% (w/v) sucrose overnight The next day dehydrated tissues were embedded in OCT embedding medium using an isopentane/dry ice bath. Embedded tissues were stored at −70° C. until they could be cryosectioned.
# Frozen sections were washed three times for 5 minutes in PBS containing 2 mM MgCl2 at 2-8° C. then 3×30 min in detergent wash (PBS containing 2 mM MgCl2 0.01% Nonidet P40 and 0.1% Sodium Deoxycholate) at 2-8° C. They were then stained overnight in PBS containing 2 mM MgCl2, 0.02% Nonidet P40, 0.1% Sodium Deoxycholate, 5 mM Potassium ferrocyanide, 5 mM Potassium ferricyanide, and 0.1% X-gal at 37° C. The next day, the slides were washed three times for 5 minutes in PBS containing 2 mM MgCl2 followed by three times for 5 minutes in PBS at room temperature. They were equilibrated with 100% ethanol (5 min) and counterstained with Eosin for 1 min at room temperature. Following dehydration and mounting they were evaluated and photographed. • Whole Mount Method
# Tissue specimens that had been prefixed in fresh 4% paraformaldehyde were stained immediately using the procedure for “Whole Mount X-Gal Histochemistry of Transgenic Animal Tissues” (see http://www.rodentia.com/wmc/docs/lacZ bible.html), summarised below) was followed, and the post-fixed tissues were transferred to 70% (v/v) ethanol.
# Following fixation for one hour in 4% paraformaldehyde, tissues were rinsed three times, for thirty minutes each, with rinse buffer (100 mM sodium phosphate (pH 7.3), 2 mM MgCl2, 0.01% sodium deoxycholate, 0.02% NP-40) at room temperature. […]
# [2] = system: HO-1 mRNA; assay: RT-PCR assay of endogenous HO-1 mRNA in HOZ mouse tissue; format: in vivo
# Method: Analysis of the expression of endogenous genes was carried out by RT-PCR using the ABI Prism 7000 system. For RT-PCR analysis, frozen tissue samples were homogenised using a Polytron PT-mr2100 homogeniser in 1 ml TRI reagent (Sigma). Total RNA for each sample was isolated according to the manufacturer's instructions and RNA pellets stored at −70° C. under 75% ethanol. Each of the RNA pellets was resuspended in RNAase/DNAase free dH2O and quantified using a Genequant RNA/DNA calculator (Amersham). First strand cDNA synthesis was performed for each sample using 2 μg of total RNA and the Protoscript First Strand cDNA Synthesis Kit (New England Biolabs) according to the manufacturer's protocol. Additional steps to degrade RNA following cDNA synthesis were performed. Each sample was diluted to 50 μl with RNAase/DNAase-free dH2O and stored at −20° C.
# In order to measure variation in p21 or Haemoxygenase-1 (HO-1) expression it was necessary to include an internal control. Amplification of β-Actin cDNA provides a standard to control for variations on RNA content between samples. The final reactions therefore consisted of two separate reactions (target gene and β-Actin cDNA amplification) performed simultaneously in a single tube. The PCR conditions used were 10 minutes at 95° C. followed by 40 cycles of denaturing for 15 seconds at 95° C. and annealing/extending for 1 minute at 60° C. The primers and probe for the p21 and HO-1 amplification reactions were obtained from ABI (Assay-On-Demand kit). These methods have been pre-validated for the standard conditions used on the ABI Prism 7000 system.
# The effects of cadmium chloride on endogenous HO-1 expression were determined by RT-PCR assay of HO-1 mRNA levels in liver and kidney tissue from HOZ mice. […] The bars show relative concentrations of HO-1 mRNA assayed by RT-PCR in brain, kidney and liver tissue of mice that had received 10 mg/kg cadmium chloride 24 hours earlier compared with mice that had received saline and untreated mice. […]
compound,measurement,setting,value
"[Cl][Cd][Cl] [Cadmium Chloride, cadmium chloride]",expression of the HOZ gene in kidney,"[1]; 8 mg/kg, 8 hours after dosing",detectable expression
same,LacZ expression in brain,"[1]; HOZ mice, with or without cadmium chloride treatment",no evidence of LacZ expression
same,LacZ staining in liver,"[1]; HOZ mouse, 10 mg/kg i.p. in saline, 24 hours after dosing",intense blue staining
same,LacZ staining in kidney (proximal convoluted tubules),"[1]; HOZ mouse, 10 mg/kg i.p. in saline, 24 hours, versus naive and saline controls",frequency of stained PCTs was much higher
same,HOZ gene expression in liver,"[1]; either sex, 8 mg/kg i.p., 24 hours",clearly apparent
same,LacZ staining in liver,"[1]; female, 4 mg/kg i.p., 8 hours",weak LacZ staining
same,HOZ gene expression in liver,"[1]; female, 2-8 mg/kg i.p., 8 hours",no consistent evidence of HOZ expression
same,HOZ gene expression in liver,"[1]; female, lower doses (2, 4 mg/kg) i.p., 24 hours",none was evident
same,HOZ gene expression in liver,"[1]; male, 8 mg/kg i.p., 8 hours",High levels of HOZ gene expression
same,HOZ gene expression in liver,"[1]; male, lower doses (2, 4 mg/kg) i.p., 8 hours",lower levels of expression
same,HOZ gene expression in liver,"[1]; male, lower doses (2, 4 mg/kg) i.p., 24 hours",some HOZ expression was also apparent
same,HO-1 mRNA levels in kidney and liver compared to controls,"[2]; 10 mg/kg, after 24 hours",very substantially elevated
same,HO-1 mRNA in liver versus dose,"[2]; both sexes, 0-8 mg/kg, 8 hours",clear dose-response relationship
same,HO-1 mRNA levels in liver,"[2]; highest doses, 24 hours",slightly elevated
